Data published in ChEMBL document CHEMBL5647681, “Lack of the aryl hydrocarbon receptor leads to impaired activation of AKT/protein kinase B and enhanced sensitivity to apoptosis induced via the intrinsic pathway” (J Pharmacol Exp Ther, 2007).
Calls of active or inactive are those of the source. No cut-off for these calls is given here.

Key:
[1] = biological target: Aryl hydrocarbon receptor (Mus musculus) (UniProt P30561); experiment: Antagonist activity at AHR in wild type mouse Hepa1c1c7 cells assessed as potentiation of UV-irradiation-induced apoptosis by measuring increase in caspase-3 activity at 0.1 to 1 uM incubated for 24 hrs before UV-irradiation for 24 hrs by caspase 3 Assay; conditions: hepa1c1c7, 48 h
[2] = biological target: Aryl hydrocarbon receptor (Mus musculus) (UniProt P30561); experiment: Antagonist activity at AHR in wild type mouse Hepa1c1c7 cells assessed as reduction in inhibition of Akt/PKB phosphorylation at 10 uM incubated for 24 hrs before UV-irradiation and measured after 30 to 60 mins by Western blot analysis; conditions: hepa1c1c7, 10 µM
[3] = Toxicity in AHR deficient mouse LA1 cells assessed as induction of apoptosis by measuring increase in caspase-3 activity at 0.1 to 1 uM incubated for 24 hrs in absence of UV-irradiation by caspase 3 Assay; conditions: la1, 24 h
[4] = system: LA1; experiment: Potentiation of UV-irradiation-induced apoptosis in AHR deficient mouse LA1 cells assessed as increase in caspase-3 activity at 0.1 to 1 uM incubated for 24 hrs before UV-irradiation for 24 hrs by caspase 3 Assay; conditions: dose 0.1-1 µM, time 48.0 hrs
[5] = biological target: Aryl hydrocarbon receptor (Mus musculus) (UniProt P30561); experiment: Antagonist activity at AHR in wild type mouse Hepa1c1c7 cells assessed as reduction in inhibition of EGFR phosphorylation at 10 uM incubated for 24 hrs before UV-irradiation and measured after 30 mins by Western blot analysis; conditions: hepa1c1c7, 24 h

Sequence of Aryl hydrocarbon receptor (Mus musculus) (P30561 whole entry, looked up): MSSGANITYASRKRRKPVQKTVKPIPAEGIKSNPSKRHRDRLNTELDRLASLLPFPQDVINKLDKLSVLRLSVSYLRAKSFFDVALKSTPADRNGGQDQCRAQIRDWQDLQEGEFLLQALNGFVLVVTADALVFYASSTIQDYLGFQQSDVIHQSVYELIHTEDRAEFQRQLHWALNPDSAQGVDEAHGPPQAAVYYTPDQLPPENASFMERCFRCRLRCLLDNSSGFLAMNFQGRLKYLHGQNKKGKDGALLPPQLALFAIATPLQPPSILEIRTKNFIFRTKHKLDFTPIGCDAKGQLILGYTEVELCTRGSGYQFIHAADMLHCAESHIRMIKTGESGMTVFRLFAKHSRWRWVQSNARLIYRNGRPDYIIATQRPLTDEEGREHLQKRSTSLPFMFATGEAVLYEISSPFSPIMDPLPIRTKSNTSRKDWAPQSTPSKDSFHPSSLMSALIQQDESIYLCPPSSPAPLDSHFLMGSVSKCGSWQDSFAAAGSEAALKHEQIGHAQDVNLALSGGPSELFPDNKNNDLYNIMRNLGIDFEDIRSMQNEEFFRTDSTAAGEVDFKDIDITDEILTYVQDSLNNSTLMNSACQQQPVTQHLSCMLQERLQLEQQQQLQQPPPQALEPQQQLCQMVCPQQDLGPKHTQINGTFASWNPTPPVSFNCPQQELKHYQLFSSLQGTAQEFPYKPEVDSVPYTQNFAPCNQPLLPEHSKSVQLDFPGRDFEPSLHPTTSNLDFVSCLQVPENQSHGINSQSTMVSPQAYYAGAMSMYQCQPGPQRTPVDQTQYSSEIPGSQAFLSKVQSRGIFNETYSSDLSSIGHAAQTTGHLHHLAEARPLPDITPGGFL

- Activity [2]: Active
- Activity [5]: Active
Compound: COc1cc(-c2cc(=O)c3ccccc3o2)ccc1[N+](=O)[O-]
- Activity [1]: Active
- Activity [3]: Non-Toxic
- Activity [4]: Active
